Reference: patent US10464922B2, “Metalloenzyme inhibitor compounds” (NQP 1598 LTD., priority 2015, dated 2019)
Converted amounts (≈) assume the structure as drawn.

Key:
C. albicans (ATCC 90028) = assay: Minimum inhibitory concentration, in vitro broth microdilution assay (CLSI M27-A2); format: cell-based, Candida albicans; details: Candida albicans, ATCC90028, 48 h, ATCC 90028; about 50% growth reduction; 2 days at 36° C.; range tested 8-0.0078 μg/mL; values given as ranges; read-out: Candida albicans MIC
Procedure: The antifungal potency of the test compounds was measured using the in vitro broth microdilution assay under assay conditions described by the Clinical and Laboratory Standards Institute (CLSI M27-A2). The test compounds were dissolved in 100% DMSO, suspended completely by sonication or vortexing, diluted by 2-fold serial titrations in the same vehicle, for a total of 11 test concentrations. A 4 μL aliquot of each dilution was added to 196 μL of RPMI-1640+MOPS medium seeded with the C. albicans (ATCC 90028) suspension in wells of a 96 well plate (fungal cell count: 1×10^3 to 1×10^4 colony forming units per mL). The final volume was 200 μL in each well and the final DMSO concentration was 2 percent. The inoculated plates were incubated for 2 days at 36° C. Following incubation, the test plates were visually examined and wells were scored for growth to define the minimum inhibitory concentration. […] Each test substance was evaluated in duplicate. Vehicle-control and an active reference agent (e.g., posaconazole) were used as blank and positive controls, respectively.

A. fumigatus = A. fumigatus MIC at 100% growth inhibition (CLSI M38-A2); format: cell-based, Aspergillus fumigatus; details: Aspergillus fumigatus, 100% growth inhibition; range tested 8-0.0078 μg/mL; values given as ranges; read-out: Aspergillus fumigatus MIC
Procedure: A. fumigatus MICs were determined at 100% growth inhibition following CLSI guidelines at a concentration range of 8-0.0078 μg/mL (CLSI M38-A2).

MIC (C. albicans (ATCC 90028)) [µg/mL]	MIC (A. fumigatus) [µg/mL]	SMILES
0.0078 to 0.01 (≈ 0.0127 to 0.0163 µM)	0.25 to 1 (≈ 0.407 to 1.63 µM)	N#Cc1ccc(N2CCC(c3ccc(-c4ccc(C(F)(F)[C@](O)(Cn5cnnn5)c5ccc(F)cc5F)nc4)cc3)CC2)cc1 [Example 22, (R)-4-(4-(4-(6-(2-(2,4-difluorophenyl)-1,1-difluoro-2-hydroxy-3-(1H-tetrazol-1-yl)propyl)pyridin-3-yl)phenyl)piperidin-1-yl) benzonitrile]
0.0078 to 0.01 (≈ 0.0121 to 0.0156 µM)	> 8	N#Cc1ccc(C(=O)N2CCN(c3ccc(-c4ccc(C(F)(F)[C@](O)(Cn5cnnn5)c5ccc(F)cc5F)nc4)cc3)CC2)cc1 [Example 23, (R)-4-(4-(4-(6-(2-(2,4-difluorophenyl)-1,1-difluoro-2-hydroxy-3-(1H-tetrazol-1-yl)propyl)pyridin-3-yl)phenyl)piperazine-1-carbonyl) benzonitrile]
0.0078 to 0.01 (≈ 0.0124 to 0.0159 µM)	> 8	N#Cc1ccc(N2CCN(c3ccc(-c4ccc(C(F)(F)[C@](O)(Cn5cnnn5)c5ccc(F)cc5F)nc4)cc3)C(=O)C2)cc1 [Example 24, (R)-4-(4-(4-(6-(2-(2,4-difluorophenyl)-1,1-difluoro-2-hydroxy-3-(1H-tetrazol-1-yl)propyl)pyridin-3-yl)phenyl)-3-oxopiperazin-1-yl) benzonitrile]
0.0078 to 0.01 (≈ 0.0124 to 0.0159 µM)	0.25 to 1 (≈ 0.398 to 1.59 µM)	N#Cc1ccc(N2CCN(c3ccc(-c4ccc(C(F)(F)[C@](O)(Cn5cnnn5)c5ccc(F)cc5F)nc4)cc3)CC2=O)cc1 [Example 25, (R)-4-(4-(4-(6-(2-(2,4-difluorophenyl)-1,1-difluoro-2-hydroxy-3-(1H-tetrazol-1-yl)propyl)pyridin-3-yl)phenyl)-2-oxopiperazin-1-yl) benzonitrile]
0.0078 to 0.01 (≈ 0.0127 to 0.0163 µM)	0.25 to 1 (≈ 0.407 to 1.63 µM)	N#Cc1ccc(C2CCN(c3ccc(-c4ccc(C(F)(F)[C@](O)(Cn5cnnn5)c5ccc(F)cc5F)nc4)cc3)CC2)cc1 [Example 26, (R)-4-(1-(4-(6-(2-(2,4-difluorophenyl)-1,1-difluoro-2-hydroxy-3-(1H-tetrazol-1-yl)propyl)pyridin-3-yl)phenyl)piperidin-4-yl) benzonitrile]
0.01 to 0.1 (≈ 0.0156 to 0.156 µM)	> 8	N#Cc1ccc(N2CCN(Cc3ccc(-c4ccc(C(F)(F)[C@](O)(Cn5cnnn5)c5ccc(F)cc5F)nc4)cc3)C(=O)C2)cc1 [Example 27, (R)-4-(4-(4-(6-(2-(2,4-difluorophenyl)-1,1-difluoro-2-hydroxy-3-(1H-tetrazol-1-yl)propyl)pyridin-3-yl)benzyl)-3-oxopiperazin-1-yl) benzonitrile]
0.01 to 0.1 (≈ 0.0162 to 0.162 µM)	> 8	O=Cc1ccc(N2CCN(c3ccc(-c4ccc(C(F)(F)[C@](O)(Cn5cnnn5)c5ccc(F)cc5F)nc4)cc3)CC2)cc1 [Example 29, (R)-4-(4-(4-(6-(2-(2,4-difluorophenyl)-1,1-difluoro-2-hydroxy-3-(1H-tetrazol-1-yl)propyl)pyridin-3-yl)phenyl)piperazin-1-yl) benzaldehyde]
0.0078 to 0.01 (≈ 0.0121 to 0.0155 µM)	0.25 to 1 (≈ 0.387 to 1.55 µM)	CN(C)Cc1ccc(N2CCN(c3ccc(-c4ccc(C(F)(F)[C@](O)(Cn5cnnn5)c5ccc(F)cc5F)nc4)cc3)CC2)cc1 [Example 30]
0.1 to 1 (≈ 0.162 to 1.62 µM)	0.25 to 1 (≈ 0.404 to 1.62 µM)	O=Cc1ccc(N2CCN(c3ccc(-c4ccc(C(F)(F)[C@](O)(Cn5cnnn5)c5ccc(F)cc5F)nc4)cc3)CC2)cn1 [Example 32, (R)-5-(4-(4-(6-(2-(2,4-difluorophenyl)-1,1-difluoro-2-hydroxy-3-(1H-tetrazol-1-yl)propyl)pyridin-3-yl)phenyl)piperazin-1-yl) picolinaldehyde]
0.01 to 0.1 (≈ 0.0154 to 0.154 µM)	1 to 4 (≈ 1.54 to 6.18 µM)	CN(C)Cc1ccc(N2CCN(c3ccc(-c4ccc(C(F)(F)[C@](O)(Cn5cnnn5)c5ccc(F)cc5F)nc4)cc3)CC2)cn1 [Example 33, (R)-2-(2,4-difluorophenyl)-1-(5-(4-(4-(6-((dimethylamino)methyl)pyridin-3-yl)piperazin-1-yl)phenyl)pyridin-2-yl)-1,1-difluoro-3-(1H-tetrazol-1-yl) propan-2-ol]
0.0078 to 0.01 (≈ 0.0113 to 0.0145 µM)	0.25 to 1 (≈ 0.363 to 1.45 µM)	OC(c1ccc(N2CCN(c3ccc(-c4ccc(C(F)(F)[C@](O)(Cn5cnnn5)c5ccc(F)cc5F)nc4)cc3)CC2)nc1)C(F)(F)F (stereo partly drawn) [Example 34, (2R)-2-(2,4-difluorophenyl)-1,1-difluoro-3-(1H-tetrazol-1-yl)-1-(5-(4-(4-(5-(2,2,2-trifluoro-1-hydroxyethyl)pyridin-2-yl)piperazin-1-yl)phenyl)pyridin-2-yl) propan-2-ol]
0.0078 to 0.01 (≈ 0.0112 to 0.0143 µM)	0.25 to 1 (≈ 0.358 to 1.43 µM)	O[C@@](Cn1cnnn1)(c1ccc(F)cc1F)C(F)(F)c1ccc(-c2ccc(N3CCN(c4ccc5[nH]c(C(F)(F)F)nc5c4)CC3)cc2)cn1 [Example 35, (R)-2-(2,4-difluorophenyl)-1,1-difluoro-3-(1H-tetrazol-1-yl)-1-(5-(4-(4-(2-(trifluoromethyl)-1H-benzo [d]imidazol-5-yl)piperazin-1-yl)phenyl)pyridin-2-yl) propan-2-ol]
0.01 to 0.1 (≈ 0.0144 to 0.144 µM)	> 8	CCC(C(C)O)n1ccc(N2CCN(c3ccc(-c4ccc(C(F)(F)[C@](O)(Cn5cnnn5)c5ccc(F)cc5F)nc4)cc3)CC2)cc1=O (stereo partly drawn) [Example 37, 4-(4-(4-(6-((R)-2-(2,4-difluorophenyl)-1,1-difluoro-2-hydroxy-3-(1H-tetrazol-1-yl)propyl)pyridin-3-yl)phenyl)piperazin-1-yl)-1-(2-hydroxypentan-3-yl) pyridin-2(1H)-one]
0.01 to 0.1 (≈ 0.0154 to 0.154 µM)	0.25 to 1 (≈ 0.386 to 1.54 µM)	CCC(O)c1ccc(N2CCN(c3ccc(-c4ccc(C(F)(F)[C@](O)(Cn5cnnn5)c5ccc(F)cc5F)nc4)cc3)CC2)cc1 (stereo partly shown) [Example 39]
0.0078 to 0.01 (≈ 0.0118 to 0.0151 µM)	0.25 to 1 (≈ 0.378 to 1.51 µM)	CC(C)C(O)c1ccc(N2CCN(c3ccc(-c4ccc(C(F)(F)[C@](O)(Cn5cnnn5)c5ccc(F)cc5F)nc4)cc3)CC2)cc1 (stereo partly drawn) [Example 40, 1-(4-(4-(4-(6-((R)-2-(2,4-difluorophenyl)-1,1-difluoro-2-hydroxy-3-(1H-tetrazol-1-yl)propyl)pyridin-3-yl)phenyl)piperazin-1-yl)phenyl)-2-methylpropan-1-ol]
0.0078 to 0.01 (≈ 0.0115 to 0.0148 µM)	0.25 to 1 (≈ 0.37 to 1.48 µM)	CC(C)CC(O)c1ccc(N2CCN(c3ccc(-c4ccc(C(F)(F)[C@](O)(Cn5cnnn5)c5ccc(F)cc5F)nc4)cc3)CC2)cc1 (stereo partly drawn) [Example 41, 1-(4-(4-(4-(6-((R)-2-(2,4-difluorophenyl)-1,1-difluoro-2-hydroxy-3-(1H-tetrazol-1-yl)propyl)pyridin-3-yl)phenyl)piperazin-1-yl)phenyl)-3-methylbutan-1-ol]
0.0078 to 0.01 (≈ 0.0118 to 0.0152 µM)	> 8	OC(c1ccc(N2CCN(c3ccc(-c4ccc(C(F)(F)[C@](O)(Cn5cnnn5)c5ccc(F)cc5F)nc4)cc3)CC2)cc1)C1CC1 (stereo partly drawn) [Example 42, (2R)-1-(5-(4-(4-(4-(cyclopropyl (hydroxy)methyl)phenyl)piperazin-1-yl)phenyl)pyridin-2-yl)-2-(2,4-difluorophenyl)-1,1-difluoro-3-(1H-tetrazol-1-yl) propan-2-ol]
0.0078 to 0.01 (≈ 0.0115 to 0.0148 µM)	0.25 to 1 (≈ 0.37 to 1.48 µM)	CC(C)(C)C(O)c1ccc(N2CCN(c3ccc(-c4ccc(C(F)(F)[C@](O)(Cn5cnnn5)c5ccc(F)cc5F)nc4)cc3)CC2)cc1 (stereo partly drawn) [Example 43, 1-(4-(4-(4-(6-((R)-2-(2,4-difluorophenyl)-1,1-difluoro-2-hydroxy-3-(1H-tetrazol-1-yl)propyl)pyridin-3-yl)phenyl)piperazin-1-yl)phenyl)-2,2-dimethylpropan-1-ol]
0.0078 to 0.01 (≈ 0.0123 to 0.0158 µM)	1 to 4 (≈ 1.58 to 6.3 µM)	CC(O)c1ccc(N2CCN(c3ccc(-c4ccc(C(F)(F)[C@](O)(Cn5cnnn5)c5ccc(F)cc5F)nc4)cc3)CC2)cn1 (stereo partly drawn) [Example 44, (2R)-2-(2,4-difluorophenyl)-1,1-difluoro-1-(5-(4-(4-(6-(1-hydroxyethyl)pyridin-3-yl)piperazin-1-yl)phenyl)pyridin-2-yl)-3-(1H-tetrazol-1-yl) propan-2-ol]
0.0078 to 0.01 (≈ 0.0118 to 0.0151 µM)	0.25 to 1 (≈ 0.377 to 1.51 µM)	CC(C)C(O)c1ccc(N2CCN(c3ccc(-c4ccc(C(F)(F)[C@](O)(Cn5cnnn5)c5ccc(F)cc5F)nc4)cc3)CC2)cn1 (stereo partly drawn) [Example 45, 1-(5-(4-(4-(6-((R)-2-(2,4-difluorophenyl)-1,1-difluoro-2-hydroxy-3-(1H-tetrazol-1-yl)propyl)pyridin-3-yl)phenyl)piperazin-1-yl)pyridin-2-yl)-2-methylpropan-1-ol]
0.0078 to 0.01 (≈ 0.0118 to 0.0151 µM)	> 8	OC(c1ccc(N2CCN(c3ccc(-c4ccc(C(F)(F)[C@](O)(Cn5cnnn5)c5ccc(F)cc5F)nc4)cc3)CC2)cn1)C1CC1 (stereo partly shown) [Example 46]
0.01 to 0.1 (≈ 0.0154 to 0.154 µM)	0.25 to 1 (≈ 0.385 to 1.54 µM)	CC(C)(O)c1ccc(N2CCN(c3ccc(-c4ccc(C(F)(F)[C@](O)(Cn5cnnn5)c5ccc(F)cc5F)nc4)cc3)CC2)cn1 [Example 47, (R)-2-(2,4-difluorophenyl)-1,1-difluoro-1-(5-(4-(4-(6-(2-hydroxypropan-2-yl)pyridin-3-yl)piperazin-1-yl)phenyl)pyridin-2-yl)-3-(1H-tetrazol-1-yl) propan-2-ol]
0.01 to 0.1 (≈ 0.0154 to 0.154 µM)	0.25 to 1 (≈ 0.385 to 1.54 µM)	CCC(O)c1ccc(N2CCN(c3ccc(-c4ccc(C(F)(F)[C@](O)(Cn5cnnn5)c5ccc(F)cc5F)nc4)cc3)CC2)cn1 (stereo partly drawn) [Example 48, 1-(5-(4-(4-(6-((R)-2-(2,4-difluorophenyl)-1,1-difluoro-2-hydroxy-3-(1H-tetrazol-1-yl)propyl)pyridin-3-yl)phenyl)piperazin-1-yl)pyridin-2-yl)propan-1-ol]
